Counter-ions that a name gives are not always drawn.
Each compound was assayed against ROCK2 (Homo sapiens, UniProt O75116) (assay: ROCK assay: phosphorylation of FITC peptide substrate, LABCHIP 3000 mobility shift). Conditions: 5 μM ATP, 1.5 μM peptide substrate; read-out: ROCK2 Activity (ROCK IC50 range).
Format: biochemical
Outline: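 Rho kinase variant phosphorylates 1.5 μM FITC-AHA-AKRRRLSSLRA-OH with 5 μM ATP in 20 mM HEPES pH 7.5, 20 mM MgCl2, 0.015% Brij-35, 4 mM DTT, DMSO <2%. EDTA stops the reaction, and phospho and non-phospho peptides are resolved by LabChip 3000 mobility shift. IC50 from dose-response curve fit.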

ROCK2, sequence (O75116 whole entry, species assumed): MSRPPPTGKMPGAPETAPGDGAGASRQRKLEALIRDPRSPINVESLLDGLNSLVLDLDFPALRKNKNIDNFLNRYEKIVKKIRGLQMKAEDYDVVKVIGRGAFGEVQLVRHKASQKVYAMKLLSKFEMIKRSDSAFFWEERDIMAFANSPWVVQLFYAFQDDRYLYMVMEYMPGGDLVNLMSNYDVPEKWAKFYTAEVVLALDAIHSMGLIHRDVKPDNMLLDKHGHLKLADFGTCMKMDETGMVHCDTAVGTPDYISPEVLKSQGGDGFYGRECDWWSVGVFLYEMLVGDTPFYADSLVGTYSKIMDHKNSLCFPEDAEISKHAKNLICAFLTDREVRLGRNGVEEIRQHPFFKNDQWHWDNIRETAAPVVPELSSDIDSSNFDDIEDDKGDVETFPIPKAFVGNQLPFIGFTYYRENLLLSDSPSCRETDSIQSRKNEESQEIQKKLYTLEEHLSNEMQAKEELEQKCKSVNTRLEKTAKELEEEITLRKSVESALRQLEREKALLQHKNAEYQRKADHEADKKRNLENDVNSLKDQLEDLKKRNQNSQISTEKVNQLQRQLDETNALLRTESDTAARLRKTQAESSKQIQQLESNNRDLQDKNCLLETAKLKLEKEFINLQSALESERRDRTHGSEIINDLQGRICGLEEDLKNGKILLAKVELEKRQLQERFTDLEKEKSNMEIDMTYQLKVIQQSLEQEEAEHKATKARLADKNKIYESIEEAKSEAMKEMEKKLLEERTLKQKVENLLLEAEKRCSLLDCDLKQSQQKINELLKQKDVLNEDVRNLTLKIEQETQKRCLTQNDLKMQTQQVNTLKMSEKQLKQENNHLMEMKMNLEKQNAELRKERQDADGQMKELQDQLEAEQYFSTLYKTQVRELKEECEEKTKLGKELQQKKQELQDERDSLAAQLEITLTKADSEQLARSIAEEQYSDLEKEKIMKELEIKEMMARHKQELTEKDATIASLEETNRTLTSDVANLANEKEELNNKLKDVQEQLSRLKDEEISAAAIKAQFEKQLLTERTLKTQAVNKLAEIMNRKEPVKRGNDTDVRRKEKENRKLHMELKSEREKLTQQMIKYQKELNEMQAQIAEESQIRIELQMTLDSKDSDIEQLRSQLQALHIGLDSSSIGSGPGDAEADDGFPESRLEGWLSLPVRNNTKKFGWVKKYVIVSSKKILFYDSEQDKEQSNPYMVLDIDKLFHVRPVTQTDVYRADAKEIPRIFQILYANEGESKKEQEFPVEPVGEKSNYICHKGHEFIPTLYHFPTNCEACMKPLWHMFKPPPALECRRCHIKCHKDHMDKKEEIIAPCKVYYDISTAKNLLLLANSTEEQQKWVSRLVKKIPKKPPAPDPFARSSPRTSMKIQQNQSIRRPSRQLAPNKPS

IC50	SMILES
5.1 to 15 nM	Cn1cc(-c2ccc3c(c2)CN(C(=O)NC2CC4(C2)CC(c2n[nH]c(=O)c5ccccc25)C4)C3)cn1 [Example 250, 5-(1-methyl-1H-pyrazol-4-yl)-N-((aR)-6-(4-oxo-3,4-dihydrophthalazin-1-yl)spiro[3.3]heptan-2-yl)isoindoline-2-carboxamide]
2.01 to 5 nM	O=C(N[C@H]1CC2(C1)C[C@H](c1n[nH]c(=O)c3ccccc31)C2)c1onc2cc(Br)ccc12 (stereo partly drawn) [Example 284, 6-bromo-N-((aR)-6-(4-oxo-3,4-dihydrophthalazin-1-yl)spiro[3.3]heptan-2-yl)benzo[c]isoxazole-3-carboxamide]
5.1 to 15 nM	[H][C@]1(c2n[nH]c(=O)c3ccccc32)C[C@]2(C[C@@H](NC(=O)c3ccc(NC=O)c(O)c3)C2)C1 (stereo partly drawn) [Example 311, 4-formamido-3-hydroxy-N-((aR)-6-(4-oxo-3,4-dihydrophthalazin-1-yl)spiro[3.3]heptan-2-yl)benzamide]
15.1 to 100 nM	[H][C@]1(c2n[nH]c(=O)c3ccccc32)C[C@]2(C[C@@H](NC(=O)c3ccc(C)nc3O)C2)C1 (stereo partly drawn) [Example 343, 2-hydroxy-6-methyl-N-((aR)-6-(4-oxo-3,4-dihydrophthalazin-1-yl)spiro[3.3]heptan-2-yl)nicotinamide]
0.2 to 2 nM	O=C(NC1CC2(C1)CC(c1n[nH]c(=O)c3ccccc13)C2)c1cnn2cc(CCC(F)(F)F)ccc12 [Example 206, N-((aR)-6-(4-oxo-3,4-dihydrophthalazin-1-yl)spiro[3.3]heptan-2-yl)-6-(3,3,3-trifluoropropyl)pyrazolo[1,5-a]pyridine-3-carboxamide]
15.1 to 100 nM	Cc1nn(-c2ccccc2)cc1C(=O)NC1CC2(C1)CC(c1n[nH]c(=O)c3ccccc13)C2 (centres unmarked) [Example 8, 3-methyl-N-[6-(4-oxo-3,4-dihydrophthalazin-1-yl)spiro[3.3]heptan-2-yl]-1-phenyl-1H-pyrazole-4-carboxamide]
100 to 2100 nM	Cc1cc(C)cc(Nc2ccc3ncc(C(=O)NC4CC5(C4)CC(c4n[nH]c(=O)c6ccccc46)C5)n3n2)c1 [Example 283, 6-((3,5-dimethylphenyl)amino)-N-((aR)-6-(4-oxo-3,4-dihydrophthalazin-1-yl)spiro[3.3]heptan-2-yl)imidazo[1,2-b]pyridazine-3-carboxamide]
15.1 to 100 nM	CC(C)(O)Cn1nc(C(=O)NC2CC3(C2)CC(c2n[nH]c(=O)c4ccccc24)C3)c2ccccc21 (centres unmarked) [Example 11, 1-(2-hydroxy-2-methylpropyl)-N-[6-(4-oxo-3,4-dihydrophthalazin-1-yl)spiro[3.3]heptan-2-yl]-1H-indazole-3-carboxamide]
2.01 to 5 nM	Cn1nc(C(=O)NC2CC3(C2)CC(c2n[nH]c(=O)c4ccccc24)C3)c2ccccc21 (centres unmarked) [Example 5, 1-methyl-N-[6-(4-oxo-3,4-dihydrophthalazin-1-yl)spiro[3.3]heptan-2-yl]-1H-indazole-3-carboxamide]
5.1 to 15 nM	[H][C@]1(c2n[nH]c(=O)c3ccccc32)C[C@]2(C[C@@H](NC(=O)c3ccc4[nH]cnc4c3)C2)C1 (stereo partly drawn) [Example 308, N-((aR)-6-(4-oxo-3,4-dihydrophthalazin-1-yl)spiro[3.3]heptan-2-yl)-1H-benzo[d] imidazole-5-carboxamide]
2.01 to 5 nM	CC(C)(O)Cn1nc(C(=O)N[C@H]2CC3(C2)C[C@H](c2n[nH]c(=O)c4ccccc42)C3)c2ccc(-c3ccccc3)cc21 (stereo partly drawn) [Example 143, 1-(2-hydroxy-2-methylpropyl)-N-((aR)-6-(4-oxo-3,4-dihydrophthalazin-1-yl)spiro[3.3]heptan-2-yl)-6-phenyl-1H-indazole-3-carboxamide]
100 to 2100 nM	[H][C@]1(c2n[nH]c(=O)c3ccccc32)C[C@@]2(C[C@H](N3C[C@@H](Cc4ccccc4)NC3=O)C2)C1 (stereo partly drawn) [Example 459, 4-((aR)-6-((R)-4-benzyl-2-oxoimidazolidin-1-yl)spiro[3.3]heptan-2-yl)phthalazin-1(2H)-one]
0.2 to 2 nM	Cn1cc(-c2ccc3c(C(=O)N[C@H]4CC5(C4)C[C@H](c4n[nH]c(=O)c6ccccc64)C5)onc3c2)cn1 (stereo partly drawn) [Example 277, 6-(1-methyl-1H-pyrazol-4-yl)-N-((aR)-6-(4-oxo-3,4-dihydrophthalazin-1-yl)spiro[3.3]heptan-2-yl)benzo[c]isoxazole-3-carboxamide]
15.1 to 100 nM	[H][C@]1(c2n[nH]c(=O)c3ccccc32)C[C@]2(C[C@@H](NC(=O)c3ccc(C#N)c(C)n3)C2)C1 (stereo partly drawn) [Example 371, 5-cyano-6-methyl-N-((aR)-6-(4-oxo-3,4-dihydrophthalazin-1-yl)spiro[3.3]heptan-2-yl)picolinamide]
2.01 to 5 nM	O=C(NC1CC2(C1)CC(c1n[nH]c(=O)c3ccccc13)C2)c1cn2c(n1)sc1ccccc12 [Example 93, N-((aR)-6-(4-oxo-3,4-dihydrophthalazin-1-yl)spiro[3.3]heptan-2-yl)benzo[d]imidazo[2,1-b]thiazole-2-carboxamide]
5.1 to 15 nM	[H][C@]1(c2n[nH]c(=O)c3ccccc32)C[C@]2(C[C@@H](NC(=O)c3ccc(-c4cnn(C5CCOCC5)c4)c(F)c3)C2)C1 (stereo partly drawn) [Example 449, 3-fluoro-N-((aR)-6-(4-oxo-3,4-dihydrophthalazin-1-yl)spiro[3.3]heptan-2-yl)-4-(1-(tetrahydro-2H-pyran-4-yl)-1H-pyrazol-4-yl)benzamide]
100 to 2100 nM	O=C(NC1CC2(C1)CC(c1n[nH]c(=O)c3ccccc13)C2)c1ccnn1CC(F)F [Example 100, 1-(2,2-difluoroethyl)-N-((aR)-6-(4-oxo-3,4-dihydrophthalazin-1-yl)spiro[3.3]heptan-2-yl)-1H-pyrazole-5-carboxamide]
0.2 to 2 nM	[H][C@]1(c2n[nH]c(=O)c3ccccc32)C[C@]2(C[C@@H](NC(=O)c3cnc4cc(OCC(F)F)ccn34)C2)C1 (stereo partly drawn) [Example 436, 7-(2,2-difluoroethoxy)-N-((aR)-6-(4-oxo-3,4-dihydrophthalazin-1-yl)spiro[3.3]heptan-2-yl)imidazo[1,2-a]pyridine-3-carboxamide]
0.2 to 2 nM	Cc1sc(N2CCC(F)(F)C2)nc1C(=O)NC1CC2(C1)CC(c1n[nH]c(=O)c3ccccc13)C2 [Example 54, 2-(3,3-difluoropyrrolidin-1-yl)-5-methyl-N-((aR)-6-(4-oxo-3,4-dihydrophthalazin-1-yl)spiro[3.3]heptan-2-yl)thiazole-4-carboxamide]
2.01 to 5 nM	O=C(NC1CC2(C1)CC(c1n[nH]c(=O)c3ccccc13)C2)c1cnn2c(C3CC3)c(OCc3ccccc3)ccc12 (stereo not drawn) [Example 125, 6-(benzyloxy)-7-cyclopropyl-N-((αR)-6-(4-oxo-3,4-dihydrophthalazin-1-yl)spiro[3.3]heptan-2-yl)pyrazolo[1,5-α]pyridin-3-carboxamide]
5.1 to 15 nM	CC(C)(C)OC(=O)N1CCc2c(C(=O)N[C@H]3CC4(C3)C[C@H](c3n[nH]c(=O)c5ccccc53)C4)csc2C1 (stereo partly drawn) [Example 272, tert-butyl 3-(((aR)-6-(4-oxo-3,4-dihydrophthalazin-1-yl)spiro[3.3]heptan-2-yl)carbamoyl)-4,5-dihydrothieno[2,3-c]pyridine-6(7H)-carboxylate]
100 to 2100 nM	O=C(N[C@H]1CC2(C1)C[C@H](c1n[nH]c(=O)c3ccccc31)C2)c1ccn(CC(F)F)n1 (stereo partly drawn) [Example 19, 1-(2,2-Difluoroethyl)-N-[(aR)-6-(4-oxo-3,4-dihydrophthalazin-1-yl)spiro[3.3]heptan-2-yl]-1H-pyrazole-3-carboxamide]
2.01 to 5 nM	Cc1nc(N2CCC(F)C2)sc1C(=O)NC1CC2(C1)CC(c1n[nH]c(=O)c3ccccc13)C2 [Example 36, 2-[(3S)-3-fluoropyrrolidin-1-yl]-4-methyl-N-[(aR)-6-(4-oxo-3,4-dihydrophthalazin-1-y)spiro[3.3]heptan-2-yl]-1,3-thiazole-5-carboxamide]
0.2 to 2 nM	O=C(NC1CC2(C1)CC(c1n[nH]c(=O)c3ccccc13)C2)c1cnn2cc(-c3cnn(C4CCOCC4)c3)ccc12 [Example 222, N-((aR)-6-(4-oxo-3,4-dihydrophthalazin-1-yl)spiro[3.3]heptan-2-yl)-6-(1-(tetrahydro-2H-pyran-4-yl)-1H-pyrazol-4-yl)pyrazolo[1,5-a]pyridine-3-carboxamide]
0.2 to 2 nM	[H][C@]1(c2n[nH]c(=O)c3ccccc32)C[C@]2(C[C@@H](NC(=O)c3cnn4cc(OCC(C)(C)OC(=O)CN)ccc34)C2)C1 (stereo partly drawn) [Example 268, 2-methyl-1-((3-(((aR)-6-(4-oxo-3,4-dihydrophthalazin-1-yl)spiro[3.3]heptan-2-yl)carbamoyl)pyrazolo[1,5-a]pyridin-6-yl)oxy)propan-2-yl2-aminoacetate, TFA]
100 to 2100 nM	[H][C@]1(c2n[nH]c(=O)c3ccccc32)C[C@]2(C[C@@H](NC(=O)c3ccc(CCN4CCCC4)nc3)C2)C1 (stereo partly drawn) [Example 344, N-((aR)-6-(4-oxo-3,4-dihydrophthalazin-1-yl)spiro[3.3]heptan-2-yl)-6-(2-(pyrrolidin-1-yl)ethyl)nicotinamide]
0.2 to 2 nM	[H][C@]1(c2n[nH]c(=O)c3ccccc32)C[C@]2(C[C@@H](NC(=O)c3cnn4cc(OCC(C)(C)OC(=O)[C@H](C)N)ccc34)C2)C1 (stereo partly drawn) [Example 270, (S)-2-methyl-1-((3-(((aR)-6-(4-oxo-3,4-dihydrophthalazin-1-yl)spiro[3.3]heptan-2-yl)carbamoyl)pyrazolo[1,5-a]pyridin-6-yl)oxy)propan-2-yl2-aminopropanoate, TFA]
2.01 to 5 nM	[H][C@]1(c2n[nH]c(=O)c3ccccc32)C[C@]2(C[C@@H](NC(=O)c3ccc(-c4cn[nH]c4)cc3OC)C2)C1 (stereo partly drawn) [Example 419, 2-methoxy-N-((aR)-6-(4-oxo-3,4-dihydrophthalazin-1-yl)spiro[3.3]heptan-2-yl)-4-(1H-pyrazol-4-yl)benzamide]

SMILES	IC50
O=C(N[C@H]1CC2(C1)C[C@H](c1n[nH]c(=O)c3ccccc31)C2)c1cnn2cc(O[C@@H]3CCOC3)ccc12 (stereo partly drawn) [Example 121, N-((aR)-6-(4-oxo-3,4-dihydrophthalazin-1-yl)spiro[3.3]heptan-2-yl)-6-((tetrahydrofuran-3-yl)oxy)pyrazolo[1,5-a]pyridine-3-carboxamide]	0.2 to 2 nM

Source: patent US9902702B2, “Spirocycloheptanes as inhibitors of rock” (BRISTOL-MYERS SQUIBB COMPANY, priority 2014, dated 2018)
